US20240254119A1 (THIRD HARMONIC BIO, INC., priority 2022, published 2024)

molecular target: T1, wtKIT (Homo sapiens, UniProt P10721); assay: HTRF biochemical assay, wtKIT (phosphorylation of a peptide substrate); settings: Table 4
T1 construct: 1888289AM in the reaction mixtures
Procedure, shortened: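 HTRF read-out of FAM-peptide (1 µM) phosphorylation after anti-phosphotyrosine antibody addition and EDTA quench. Reaction: 5.0 nM wtKIT, 400 µM ATP, 10 mM Mn2+, HEPES pH 7.5, 1% DMSO, 3 h, 25 °C; optional enzyme-compound preincubation; enzyme level set for 10-20% conversion.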

T1 sequence (P10721 26-976): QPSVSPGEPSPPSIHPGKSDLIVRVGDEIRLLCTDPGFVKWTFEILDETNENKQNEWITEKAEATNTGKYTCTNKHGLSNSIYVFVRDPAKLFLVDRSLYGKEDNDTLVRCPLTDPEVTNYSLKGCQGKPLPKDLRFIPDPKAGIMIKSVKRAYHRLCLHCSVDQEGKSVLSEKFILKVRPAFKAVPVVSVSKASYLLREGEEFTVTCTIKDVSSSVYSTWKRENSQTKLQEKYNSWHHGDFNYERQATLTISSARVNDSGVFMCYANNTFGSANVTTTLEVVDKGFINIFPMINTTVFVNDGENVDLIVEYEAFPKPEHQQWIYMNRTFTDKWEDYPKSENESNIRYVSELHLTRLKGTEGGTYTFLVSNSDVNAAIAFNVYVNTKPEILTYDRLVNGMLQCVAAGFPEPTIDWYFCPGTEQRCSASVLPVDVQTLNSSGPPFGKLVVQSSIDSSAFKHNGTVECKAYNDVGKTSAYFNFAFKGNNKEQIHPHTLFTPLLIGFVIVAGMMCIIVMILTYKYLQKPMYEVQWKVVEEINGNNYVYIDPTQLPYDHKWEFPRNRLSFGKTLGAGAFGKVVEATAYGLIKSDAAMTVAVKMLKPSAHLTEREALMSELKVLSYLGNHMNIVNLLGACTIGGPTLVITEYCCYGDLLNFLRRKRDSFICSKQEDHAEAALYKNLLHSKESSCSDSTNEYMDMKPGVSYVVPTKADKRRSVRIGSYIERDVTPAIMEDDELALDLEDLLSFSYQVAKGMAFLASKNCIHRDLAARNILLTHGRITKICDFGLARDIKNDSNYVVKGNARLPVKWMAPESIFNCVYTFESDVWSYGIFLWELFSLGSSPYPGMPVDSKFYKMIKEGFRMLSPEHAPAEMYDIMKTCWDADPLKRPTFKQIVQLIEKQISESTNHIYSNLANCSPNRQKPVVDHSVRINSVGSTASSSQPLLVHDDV

Structure (SMILES) | IC50 [nM]
COc1ccn2c(C(=O)Nc3cc(-c4noc(-c5ccc(C)cn5)n4)ccc3C)cnc2c1 [Compound I-556, 7-methoxy-N-(2-methyl-5-(5-(5-methylpyridin-2-yl)-1,2,4-oxadiazol-3-yl)phenyl)imidazo[1,2-a]pyridine-3-carboxamide] | ≤ 50
COCc1ccn2c(C(=O)Nc3cc(-c4noc(CCN5CCCCC5)n4)ccc3C)cnc2c1 [Compound I-666] | 50 to 500
CNCC(O)Cc1nc(-c2ccc(C)c(NC(=O)c3cnc4ccccn34)c2)no1 (centres unmarked) [Compound I-557] | 5000 to 30000
Cc1ccn2c(C(=O)Nc3cc(-c4noc(CCC(C)(O)C(F)(F)F)n4)ccc3C)cnc2c1 (centres unmarked) [Compound I-752, 7-methyl-N-(2-methyl-5-(5-(4,4,4-trifluoro-3-hydroxy-3-methylbutyl)-1,2,4-oxadiazol-3-yl)phenyl)imidazo[1,2-a]pyridine-3-carboxamide] | ≤ 50
Cc1ccc(-c2noc([C@H]3C[C@@H]3F)n2)cc1NC(=O)c1cnc2cc(CCOCCO)ccn12 [Compound I-475, N-[5-[5-[(1R,2S)-2-fluorocyclopropyl]-1,2,4-oxadiazol-3-yl]-2-methyl-phenyl]-7-[2-(2-hydroxyethoxy)ethyl]imidazo[1,2-a]pyridine-3-carboxamide] | ≤ 50
Cc1ccc(-c2noc(C3CC(O)C3)n2)cc1NC(=O)c1cnc2cc(-c3ccn(C)n3)ccn12 (centres unmarked) [Compound I-727] | ≤ 50
Cc1ccc(-c2ncon2)cc1NC(=O)c1cnc2cc(F)ccn12 [Compound I-744] | 500 to 5000
COCc1ccn2c(C(=O)Nc3cc(-c4noc(-c5cccnc5)n4)ccc3C)cnc2c1 [Compound I-732] | 50 to 500
Cc1ccc(-c2noc(CC(O)C3COC3)n2)cc1NC(=O)c1cnc2ccccn12 (centres unmarked) [Compound I-591] | 50 to 500
CCc1nc(-c2ccc(C)c(NC(=O)c3cnc4cc(OC)ccn34)c2)no1 [Compound I-737] | ≤ 50
Cc1ccc(-c2noc(N3CC(F)(F)C3)n2)nc1NC(=O)c1cnc2ccccn12 [Compound I-711] | 50 to 500
Cc1ccc(-c2noc(N3CC(F)(F)C3)n2)cc1NC(=O)c1cnc2cc(Cl)ccn12 [Compound I-601, 7-chloro-N-(5-(5-(3,3-difluoroazetidin-1-yl)-1,2,4-oxadiazol-3-yl)-2-methylphenyl)imidazo[1,2-a]pyridine-3-carboxamide] | ≤ 50
Cc1ccn2c(C(=O)Nc3cc(-c4noc(-c5cccnn5)n4)ccc3C)cnc2c1 [Compound I-550] | 50 to 500
Cc1nc(-c2ccc(C)c(NC(=O)c3cnc4cc(OC5CCOC5)ccn34)c2)no1 (single isomer, unassigned) [Compound I-748] | 50 to 500
Cc1ccc(-c2noc([C@@H]3CC4(CC4)CN3)n2)cc1NC(=O)c1cnc2cc(Cl)ccn12 [Compound I-627, (S)—N-(5-(5-(5-azaspiro[2.4]heptan-6-yl)-1,2,4-oxadiazol-3-yl)-2-methylphenyl)-7-chloroimidazo[1,2-a]pyridine-3-carboxamide] | ≤ 50
Cc1ccc(-c2noc([C@H]3C[C@@H]3F)n2)cc1NC(=O)c1cnc2cc(CC(C)(C)O)ccn12 [Compound I-460] | 50 to 500
COc1ccn2c(C(=O)Nc3cc(-c4noc(N5CC(F)(F)C5)n4)ccc3C)cnc2c1 [Compound I-603, N-(5-(5-(3,3-difluoroazetidin-1-yl)-1,2,4-oxadiazol-3-yl)-2-methylphenyl)-7-methoxyimidazo[1,2-a]pyridine-3-carboxamide] | ≤ 50
COC[C@@H](O)c1nc(-c2ccc(C)c(NC(=O)c3cnc4cc(C)ccn34)c2)no1 [Compound I-607] | 500 to 5000
Cc1ccc(-c2noc([C@H]3C[C@@H]3F)n2)cc1NC(=O)c1cnc2cc(COCC(O)C(F)F)ccn12 (stereo partly drawn) [Compound I-499, 7-((3,3-difluoro-2-hydroxypropoxy)methyl)-N-(5-(5-((1R,2S)-2-fluorocyclopropyl)-1,2,4-oxadiazol-3-yl)-2-methylphenyl)imidazo[1,2-a]pyridine-3-carboxamide] | ≤ 50
Cc1ccc(-c2noc(-c3cccnc3)n2)cc1NC(=O)c1cnn2cc(-c3ccn(C)n3)ccc12 [Compound I-723] | ≤ 50
Cc1ccc(-c2noc([C@H]3C[C@@H]3F)n2)cc1NC(=O)c1cnc2cc(C(=O)O)ccn12 [Compound I-491] | 50 to 500
Cc1ccn2c(C(=O)Nc3cc(-c4noc(-c5nc(C)oc5C)n4)ccc3C)cnc2c1 [Compound I-551] | ≤ 50

Structure (SMILES) | IC50 [nM]
CNCCOCc1ccn2c(C(=O)Nc3cc(-c4noc(C[C@H](O)C(F)F)n4)ccc3C)cnc2c1 [Compound I-593] | 50 to 500
Cc1ccc(-c2noc([C@H]3C[C@@H]3F)n2)cc1NC(=O)c1cnn2ccc(OC(C)C)cc12 [Compound I-493, N-(5-(5-((1R,2S)-2-fluorocyclopropyl)-1,2,4-oxadiazol-3-yl)-2-methylphenyl)-5-isopropoxypyrazolo[1,5-a]pyridine-3-carboxamide] | ≤ 50
Cc1ccnc(-c2nc(-c3ccc(C)c(NC(=O)c4cnc5cc(C)ccn45)c3)no2)c1 [Compound I-549, 7-methyl-N-(2-methyl-5-(5-(4-methylpyridin-2-yl)-1,2,4-oxadiazol-3-yl)phenyl)imidazo[1,2-a]pyridine-3-carboxamide] | ≤ 50
Cc1ccc(-c2noc(-c3cccnc3)n2)cc1NC(=O)c1cnc2ccccn12 [Compound I-738] | 50 to 500
Cc1nc(-c2ccc(C)c(NC(=O)c3cnc4ccccn34)c2)no1 [Compound I-564] | 50 to 500
Cc1ccc(-c2noc(C[C@H](O)C(F)F)n2)cc1NC(=O)c1cnc2cc(COCc3c[nH]nn3)ccn12 [Compound I-575, (S)-7-(((1H-1,2,3-triazol-4-yl)methoxy)methyl)-N-(5-(5-(3,3-difluoro-2-hydroxypropyl)-1,2,4-oxadiazol-3-yl)-2-methylphenyl)imidazo[1,2-a]pyridine-3-carboxamide] | ≤ 50
Cc1ccc(-c2noc(CC(O)C(C)(C)C)n2)cc1NC(=O)c1cnc2ccccn12 (centres unmarked) [Compound I-519] | ≤ 50
Cc1ccc(-c2ncon2)cc1NC(=O)c1cnc2cc(N3CCOCC3)ccn12 [Compound I-717] | ≤ 50
Cc1ccc(-c2ncon2)cc1NC(=O)c1cnc2cc(N3CCCCC3)ccn12 [Compound I-712] | 50 to 500
Cc1nc(-c2ccc(C)c(NC(=O)c3cnc4cc(-c5ccn(C)n5)ccn34)c2)no1 [Compound I-530, 7-(1-methyl-1H-pyrazol-3-yl)-N-(2-methyl-5-(5-methyl-1,2,4-oxadiazol-3-yl)phenyl)imidazo[1,2-a]pyridine-3-carboxamide] | ≤ 50
Cc1ccc(-c2noc(C3CC(F)(F)C3)n2)cc1NC(=O)c1cnn2ccccc12 [Compound I-518, methyl N-(5-(5-(3,3-difluorocyclobutyl)-1,2,4-oxadiazol-3-yl)-2-methylphenyl)pyrazolo[1,5-a]pyridine-3-carboxamide] | ≤ 50
Cc1ccc(-c2noc(C[C@H](O)C(F)F)n2)cc1NC(=O)c1cnc2cc(OCC(C)(C)O)ccn12 [Compound I-576] | ≤ 50
Cc1ccc(-c2noc([C@H]3C[C@@H]3F)n2)cc1NC(=O)c1cnc2cc(C3CC(O)C3)ccn12 (stereo partly drawn) [Compound I-478, N-[5-[5-[(1R,2S)-2-fluorocyclopropyl]-1,2,4-oxadiazol-3-yl]-2-methyl-phenyl]-7-(3-hydroxycyclobutyl)imidazo[1,2-a]pyridine-3-carboxamide] | ≤ 50
COc1ccn2c(C(=O)Nc3cc(-c4noc(-c5ccccc5)n4)ccc3C)cnc2c1 [Compound I-743] | 500 to 5000
Cc1ccc(-c2noc(CC(O)CN3CCOCC3)n2)cc1NC(=O)c1cnc2ccccn12 (centres unmarked) [Compound I-543] | 50 to 500
Cc1ccc(-c2noc([C@H]3C[C@@H]3F)n2)cc1NC(=O)c1cnn2ccc(F)cc12 [Compound I-496, 5-fluoro-N-[5-[5-[(1R,2S)-2-fluorocyclopropyl]-1,2,4-oxadiazol-3-yl]-2-methylphenyl]pyrazolo[1,5-a]pyridine-3-carboxamide] | ≤ 50
Cc1nc(-c2ccc(C)c(NC(=O)c3cnn4cc(C(F)F)ccc34)c2)no1 [Compound I-569] | 50 to 500
Cc1ccc(-c2noc([C@H]3C[C@@H]3F)n2)cc1NC(=O)c1cnc2cc([C@H]3C[C@@H]3CO)ccn12 [Compound I-480, N-[5-[5-[(1R,2S)-2-fluorocyclopropyl]-1,2,4-oxadiazol-3-yl]-2-methyl-phenyl]-7-[(1S,2S)-2 (hydroxymethyl)cyclopropyl]imidazo[1,2-a]pyridine-3-carboxamide] | ≤ 50
Cc1ccc(-c2noc([C@H]3C[C@@H]3F)n2)cc1NC(=O)c1cnc2ccc(C(C)(C)O)cn12 [Compound I-457, N-(5-(5-((1R,2S)-2-fluorocyclopropyl)-1,2,4-oxadiazol-3-yl)-2-methylphenyl)-6-(2-hydroxypropan-2-yl)imidazo[1,2-a]pyridine-3-carboxamide] | ≤ 50
Cc1ccc(-c2noc(CC(O)c3ccccc3)n2)cc1NC(=O)c1cnc2ccccn12 (centres unmarked) [Compound I-517, N-(5-(5-(2-hydroxy-2-phenylethyl)-1,2,4-oxadiazol-3-yl)-2-methylphenyl)imidazo[1,2-a]pyridine-3-carboxamide] | ≤ 50
Cc1ccc(-c2noc([C@H]3C[C@@H]3F)n2)cc1NC(=O)c1cnc2ccc(COCC(C)(C)O)cn12 [Compound I-455, N-[5-[5-[(1R,2S)-2-fluorocyclopropyl]-1,2,4-oxadiazol-3-yl]-2-methyl-phenyl]-6-[(2-hydroxy-2-methyl-propoxy)methyl]imidazo[1,2-a]pyridine-3-carboxamide] | ≤ 50
Cc1ccc(-c2noc(C[C@H](O)C(F)F)n2)cc1NC(=O)c1cnc2cc(OCC(C)O)ccn12 (stereo partly drawn) [Compound I-571, N-(5-(5-((S)-3,3-difluoro-2-hydroxypropyl)-1,2,4-oxadiazol-3-yl)-2-methylphenyl)-7-(2-hydroxypropoxy)imidazo[1,2-a]pyridine-3-carboxamide] | ≤ 50
